Assay results as given in the supplement of paper PMC10307832.

Tests used:
Experiment in all cases: relative viability (nuclei count vs DMSO), 5 days (fraction); higher = more cells survive
[1] = compound: Cc1ccc(NC(=O)c2ccc(CN3CCN(C)CC3)cc2)cc1Nc1nccc(-c2cccnc2)n1 [Imatinib] + Cc1cc(Nc2cc(N3CCN(C)CC3)nc(Sc3ccc(NC(=O)C4CC4)cc3)n2)n[nH]1 [Tozasertib] (partner 0.1 µM)
In short: (§1)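 After 5 days of treatment, lung cancer cells in 1536-well plates were fixed and stained in a single step (final 0.05% Triton X-100, 1% formaldehyde, 1 ug/ml Hoechst) and their nuclei counted on 4× images. Treatment had been applied by pin tool the day after seeding as one drug alone or as a fixed anchor-drug dose with five library-drug doses (not always all listed) in √10 steps. Relative viability is the nuclei count of treated wells divided by that of vehicle wells, and values are medians of duplicate plates.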

[2] = compound: Cc1ccc(NC(=O)c2ccc(CN3CCN(C)CC3)cc2)cc1Nc1nccc(-c2cccnc2)n1 [Imatinib] + CC(=O)c1c(C)c2cnc(Nc3ccc(N4CCNCC4)cn3)nc2n(C2CCCC2)c1=O [Palbociclib] (partner 0.5 µM)
In short: as §1

[3] = compound: Cc1ccc(NC(=O)c2ccc(CN3CCN(C)CC3)cc2)cc1Nc1nccc(-c2cccnc2)n1 [Imatinib] + CC1(C)CCC(c2ccc(Cl)cc2)=C(CN2CCN(c3ccc(C(=O)NS(=O)(=O)c4ccc(N[C@H](CCN5CCOCC5)CSc5ccccc5)c(S(=O)(=O)C(F)(F)F)c4)cc3)CC2)C1 [Navitoclax] (partner 0.5 µM)
In short: as §1

[4] = compound: Cc1ccc(NC(=O)c2ccc(CN3CCN(C)CC3)cc2)cc1Nc1nccc(-c2cccnc2)n1 [Imatinib] + C[C@]1(O)C[C@@H](c2nc(-c3ccc4ccc(-c5ccccc5)nc4c3)c3c(N)nccn32)C1 [Linsitinib] (partner 1 µM)
In short: as §1

Cell Line: EKVX
- relative viability ([1]; first compound 0.06325 µM): 0.389
- relative viability ([1]; first compound 0.2 µM): 0.348
- relative viability ([1]; first compound 0.6325 µM): 0.287
- relative viability ([1]; first compound 2 µM): 0.354
- relative viability ([2]; first compound 0.02 µM): 0.377
- relative viability ([2]; first compound 0.2 µM): 0.384
- relative viability ([2]; first compound 0.6325 µM): 0.456
- relative viability ([3]; first compound 0.02 µM): 1.18
- relative viability ([3]; first compound 0.06325 µM): 0.859
- relative viability ([3]; first compound 0.2 µM): 0.983
- relative viability ([3]; first compound 0.6325 µM): 0.929
- relative viability ([3]; first compound 2 µM): 0.973
- relative viability ([4]; first compound 0.02 µM): 1.09
- relative viability ([4]; first compound 0.2 µM): 0.968
- relative viability ([4]; first compound 0.6325 µM): 1.02
- relative viability ([4]; first compound 2 µM): 1.12

Cell Line: EMC-BAC-2
- relative viability ([1]; first compound 0.02 µM): 0.297
- relative viability ([1]; first compound 0.06325 µM): 0.296
- relative viability ([1]; first compound 0.2 µM): 0.33
- relative viability ([1]; first compound 0.6325 µM): 0.283
- relative viability ([1]; first compound 2 µM): 0.277
- relative viability ([2]; first compound 0.02 µM): 0.525
- relative viability ([2]; first compound 0.06325 µM): 0.571
- relative viability ([2]; first compound 0.2 µM): 0.514
- relative viability ([2]; first compound 0.6325 µM): 0.553
- relative viability ([2]; first compound 2 µM): 0.517
- relative viability ([3]; first compound 0.02 µM): 1.18
- relative viability ([3]; first compound 0.06325 µM): 1.49
- relative viability ([3]; first compound 0.2 µM): 1.31
- relative viability ([3]; first compound 0.6325 µM): 1.24
- relative viability ([3]; first compound 2 µM): 1.22
- relative viability ([4]; first compound 0.02 µM): 0.845
- relative viability ([4]; first compound 0.06325 µM): 0.961
- relative viability ([4]; first compound 0.2 µM): 0.889
- relative viability ([4]; first compound 0.6325 µM): 0.767
- relative viability ([4]; first compound 2 µM): 0.868

Cell Line: EPLC-272H
- relative viability ([1]; first compound 0.02 µM): 0.366
- relative viability ([1]; first compound 0.2 µM): 0.256
- relative viability ([1]; first compound 0.6325 µM): 0.258
- relative viability ([1]; first compound 2 µM): 0.207
- relative viability ([2]; first compound 0.02 µM): 0.309
- relative viability ([2]; first compound 0.6325 µM): 0.34
- relative viability ([2]; first compound 2 µM): 0.297
- relative viability ([3]; first compound 0.02 µM): 1.22
- relative viability ([3]; first compound 0.2 µM): 1.12
- relative viability ([3]; first compound 0.6325 µM): 1.11
- relative viability ([3]; first compound 2 µM): 1.06
- relative viability ([4]; first compound 0.02 µM): 1.28
- relative viability ([4]; first compound 0.2 µM): 1.24
- relative viability ([4]; first compound 0.6325 µM): 1.23
- relative viability ([4]; first compound 2 µM): 1.02

Cell Line: H3255
- relative viability ([1]; first compound 0.02 µM): 0.604
- relative viability ([1]; first compound 0.06325 µM): 0.608
- relative viability ([1]; first compound 0.2 µM): 0.638
- relative viability ([1]; first compound 0.6325 µM): 0.575
- relative viability ([1]; first compound 2 µM): 0.614
- relative viability ([2]; first compound 0.02 µM): 0.316
- relative viability ([2]; first compound 0.06325 µM): 0.325
- relative viability ([2]; first compound 0.2 µM): 0.317
- relative viability ([2]; first compound 0.6325 µM): 0.338
- relative viability ([2]; first compound 2 µM): 0.308
- relative viability ([3]; first compound 0.02 µM): 0.512
- relative viability ([3]; first compound 0.06325 µM): 0.441
- relative viability ([3]; first compound 0.2 µM): 0.44
- relative viability ([3]; first compound 0.6325 µM): 0.497
- relative viability ([3]; first compound 2 µM): 0.548
- relative viability ([4]; first compound 0.02 µM): 1.06
- relative viability ([4]; first compound 0.06325 µM): 0.921
- relative viability ([4]; first compound 0.2 µM): 0.877
- relative viability ([4]; first compound 0.6325 µM): 0.965
- relative viability ([4]; first compound 2 µM): 0.998

Cell Line: HARA
- relative viability ([1]; first compound 0.02 µM): 0.083
- relative viability ([1]; first compound 0.2 µM): 0.107
- relative viability ([1]; first compound 0.6325 µM): 0.0993
- relative viability ([1]; first compound 2 µM): 0.101
- relative viability ([2]; first compound 0.02 µM): 0.262
- relative viability ([2]; first compound 0.2 µM): 0.264
- relative viability ([2]; first compound 0.6325 µM): 0.281
- relative viability ([2]; first compound 2 µM): 0.262
- relative viability ([3]; first compound 0.02 µM): 1.19
- relative viability ([3]; first compound 0.06325 µM): 1.18
- relative viability ([3]; first compound 0.2 µM): 1.15
- relative viability ([3]; first compound 0.6325 µM): 1.17
- relative viability ([3]; first compound 2 µM): 1.16
- relative viability ([4]; first compound 0.02 µM): 1.16
- relative viability ([4]; first compound 0.06325 µM): 0.906
- relative viability ([4]; first compound 0.2 µM): 1.05
- relative viability ([4]; first compound 0.6325 µM): 0.994
- relative viability ([4]; first compound 2 µM): 0.969

Cell Line: HCC-15
- relative viability ([1]; first compound 0.02 µM): 0.472
- relative viability ([1]; first compound 0.2 µM): 0.389
- relative viability ([1]; first compound 0.6325 µM): 0.402
- relative viability ([1]; first compound 2 µM): 0.284
- relative viability ([2]; first compound 0.02 µM): 0.496
- relative viability ([2]; first compound 0.2 µM): 0.822
- relative viability ([2]; first compound 0.6325 µM): 0.778
- relative viability ([2]; first compound 2 µM): 0.713
- relative viability ([3]; first compound 0.02 µM): 0.736
- relative viability ([3]; first compound 0.06325 µM): 0.522
- relative viability ([3]; first compound 0.2 µM): 0.764
- relative viability ([3]; first compound 0.6325 µM): 0.722
- relative viability ([3]; first compound 2 µM): 0.709
- relative viability ([4]; first compound 0.02 µM): 0.82
- relative viability ([4]; first compound 0.06325 µM): 0.917
- relative viability ([4]; first compound 0.2 µM): 0.926
- relative viability ([4]; first compound 2 µM): 0.867

Cell Line: HCC-44
- relative viability ([1]; first compound 0.02 µM): 1.03
- relative viability ([1]; first compound 0.06325 µM): 0.558
- relative viability ([1]; first compound 0.2 µM): 1.01
- relative viability ([1]; first compound 0.6325 µM): 0.109
- relative viability ([1]; first compound 2 µM): 0.735
- relative viability ([2]; first compound 0.02 µM): 0.976
- relative viability ([2]; first compound 0.2 µM): 1.1
- relative viability ([2]; first compound 2 µM): 0.885
- relative viability ([3]; first compound 0.02 µM): 1.11
- relative viability ([3]; first compound 0.06325 µM): 1.05
- relative viability ([3]; first compound 0.2 µM): 1.03
- relative viability ([3]; first compound 0.6325 µM): 0.858
- relative viability ([3]; first compound 2 µM): 0.866
- relative viability ([4]; first compound 0.02 µM): 0.801
- relative viability ([4]; first compound 0.2 µM): 0.664
- relative viability ([4]; first compound 0.6325 µM): 0.549
- relative viability ([4]; first compound 2 µM): 0.646

Cell Line: HCC-78
- relative viability ([1]; first compound 0.02 µM): 0.393
- relative viability ([1]; first compound 0.06325 µM): 0.455
- relative viability ([1]; first compound 0.2 µM): 0.427
- relative viability ([1]; first compound 0.6325 µM): 0.409
- relative viability ([1]; first compound 2 µM): 0.427
- relative viability ([2]; first compound 0.02 µM): 0.468
- relative viability ([2]; first compound 0.06325 µM): 0.527
- relative viability ([2]; first compound 0.2 µM): 0.528
- relative viability ([2]; first compound 0.6325 µM): 0.452
- relative viability ([2]; first compound 2 µM): 0.499
- relative viability ([3]; first compound 0.02 µM): 0.725
- relative viability ([3]; first compound 0.06325 µM): 0.62
- relative viability ([3]; first compound 0.2 µM): 0.823
- relative viability ([3]; first compound 0.6325 µM): 0.7
- relative viability ([3]; first compound 2 µM): 0.818
- relative viability ([4]; first compound 0.02 µM): 0.444
- relative viability ([4]; first compound 0.06325 µM): 0.528
- relative viability ([4]; first compound 0.2 µM): 0.563
- relative viability ([4]; first compound 0.6325 µM): 0.524
- relative viability ([4]; first compound 2 µM): 0.576

Cell Line: HCC-366
- relative viability ([1]; first compound 0.02 µM): 0.193
- relative viability ([1]; first compound 0.2 µM): 0.109
- relative viability ([1]; first compound 0.6325 µM): 0.0574
- relative viability ([1]; first compound 2 µM): 0.0718
- relative viability ([2]; first compound 0.02 µM): 0.435
- relative viability ([2]; first compound 0.06325 µM): 0.425
- relative viability ([2]; first compound 0.2 µM): 0.502
- relative viability ([2]; first compound 0.6325 µM): 0.35
- relative viability ([2]; first compound 2 µM): 0.412
- relative viability ([3]; first compound 0.02 µM): 1.02
- relative viability ([3]; first compound 0.2 µM): 1.13
- relative viability ([3]; first compound 0.6325 µM): 1.09
- relative viability ([3]; first compound 2 µM): 1.07
- relative viability ([4]; first compound 0.02 µM): 0.685
- relative viability ([4]; first compound 0.2 µM): 1.02
- relative viability ([4]; first compound 0.6325 µM): 0.692
- relative viability ([4]; first compound 2 µM): 0.844
